“Also recorded” adds a separate entry of the source. Where two headings read alike, the source gives them in different places. Values belong to the compound of their own block, whether it stands above or below them.
Experiments:
LC3-II protein = LC3-II protein level in SH-SY5Y cells with or without bafilomycin A1; type: cell-based, human; conditions: bafilomycin A1 10 nM alone
Description: The observed increase in LC3-positive autophagosomes could result, in principle, from either an increased flux through the autophagy pathway or decreased autophagosome degradation (Pankiv, S., et al. J Biol Chem 282, 24131-24145 (2007); Kamada, Y., et al. J Cell Biol 150, 1507-1513 (2000)). […] In order to ascertain an increase in autophagic flux, cells were co-treated with LNK-754-TS and an inhibitor of autophagosome-lysosome fusion, bafilomycin A1 (10 nM). Bafilomycin treatment alone caused a 100% increase in the amount of LC3-II, consistent with the fact that it inhibits autophagosome degradation (FIG. 8c).

human α-synuclein = assay: Masliah D-line α-synuclein transgenic mouse, α-synuclein immunoreactivity and ELISA; type: in vivo; conditions: α-synuclein transgenic mice vs vehicle
Description: Animals and treatments: Male and female human WT alpha-synuclein over-expressing transgenic mice^32 at 6 months of age were given vehicle (10% beta-cyclodextrin) or LNK-754-TS (0.09, 0.9 and 9 mg/kg) per oral gavage twice daily for 3 months or animals at 7 months of age were given vehicle (2.5% beta-cyclodextrin) or LNK-754-TS (2 mg/kg) once every three days for 3 months. Male and female TAU transgenic mice expressing TAU441 bearing the missense mutations V337M^50 and R406W under the control of the murine Thy-1 promoter with a CB6xC57BL/6 background were 5 months old at the time when the oral treatment for three months with LNK-754-TS (0.9 and 0.09 mg/kg) as well as vehicle (2.5% beta-cyclodextrin) was started. Female human APP/PS1 (APP (London V7171)/PS1(A246E)) over-expressing transgenic mice were treated with LNK-754-TS (0.9 mg/kg) or vehicle (2.5% beta-cyclodextrin) for 2 months or 12 days.
Immunohistochemistry and quantification of stained cells: For evaluation of α-synuclein immunoreactivity (IR), 5 sagittal cryo-cut sections (10 μm slice thickness) from five different layers were used for counting of IR cells in the cortex and hippocampus. Brain sections were stained with a monoclonal human α-synuclein specific antibody (Alexis®; Cat#804-258-L001; dilution 1:5), followed by a secondary Ab Cy 2-Goat Anti-Rat (Jackson ImmunoResearch®; dilution 1:200). IR positive cells were quantified using specialized image analysis software (Image Pro Plus, version 4.5.1.29). For Tau transgenic animals, 5 μm thick coronal paraffin sections were stained with the monoclonal mouse anti-human TAU-antibodies (AT180—1:100; HT7—1:500) and visualized using an anti-mouse Cy3 secondary antibody (1:500, Jackson Laboratories®). Images were evaluated with ImageProPlus (version 6.2) image analysis software. For APP/PS1 transgenic animals sagittal hemisections (40 μm) were collected and processed for Aβ immunohistochemistry using an 6E10 antibody, Thioflavin-S staining. Primary antibodies were detected by the ABC method.
ELISA quantification of α-Synuclein in the α-Synuclein transgenic animals: Brain homogenate was centrifuged and the supernatant saved as fraction F1. The pellet was washed then resuspended and saved as fraction F2. Plates (Nunc, 464718) were coated with SYN-1 (1:1000, BD Transduction Labs, 610787). Monomeric recombinant α-synuclein was included as an internal standard. Biotinylated antibody FL-140 (1:300, Santa Cruz Biotechnology, sc-10717-B) and ExtrAvidin-Alkaline phosphatase (3:5000, Sigma, E2636) was added followed by pNPP substrate solution (Sigma, N1891). Raw absorbance (405 nm) was then normalized to the total protein concentration of each sample. In the APP/PS1 transgenic animal, brains were homogenized and the supernatant, Faction 1, was separated from the pellet. The pellets were further processed with addition of NP40 and Triton X-100. The supernatant was separated from the pellet as the insoluble membrane, Fraction 2, and was dissolved in 8M Guanidine. To quantify the amount of human Aβ-40 and Aβ-42, ELISA kits were used (The Genetics Company, Zurich, Switzerland).
In FIG. 2 is shown efficacy data for LNK-754-TS in the Masliah D-line transgenic α-synuclein mouse (an accepted model of synucleinopathies). Two trials are shown, the first (FIG. 2A) at higher doses of LNK-754-TS: 45 mg/kg and 9 mg/kg. […] The second trial (FIG. 2B) explores the low dose range for efficacy in the α-synuclein models. Here, doses start as low as 0.9 mg/kg, and extend through 9 mg/kg, all below the efficacious dose range in the mouse oncology model.
After dosing with LNK-754-TS for three months (twice daily at 0.09 mg/kg or 0.9 mg/kg), α-synuclein accumulation in the brain was analyzed by immunohistochemical (human specific α-synuclein immunoreactivity) and biochemical (α-synuclein ELISA) means. […]

[1] = Pharmacokinetics of Zarnestra in C57BL/6 mice, oral; type: in vivo, mouse; conditions: oral 5 mg/kg single dose; for MRT: read-out: MRT(0-[…])
Description: LLOQ: brain 4 ng/g; plasma 50 ng/ml.
The pharmacokinetic profiles of LNK-754-TS and Zarnestra® were analyzed using methods known in the art. The results are shown in FIGS. 13-14 and the tables below.

LC3 mRNA = LC3 mRNA (qPCR) in SH-SY5Y cells; type: cell-based, human; conditions: 100 nM, 72 hr, SH-SY5Y
Description: (§1) Cell culture and immunocytochemistry: SH-SY5Y cells were grown in DMEM medium supplemented with 10% FBS and 1% pen/strep at 37° C. and 5% CO2. Cells were differentiated with 10 μM retinoic acid for 48 hr, then treated with the either rapamycin (100 nM or 1 μM) or with 100 nM of either LNK-754-TS or Tipifarnib for 48-72 hr. Cells were then fixed with 4% paraformaldehyde and stained for LC3 (Novus biological, NB100-2331, dilution 1:800) followed by secondary Alexa-564 anti-Rabbit (A-11011).
(§2) Quantitative real-time PCR: Gene expression profiles were done by qPCR on series of known autophagy genes. RNA was extracted with Tri-reagent (Sigma), and cDNAs generated using iScript (Biorad). qPCR analysis was carried out in a 96 well plate using an iCycler (BioRad, Hercules, Calif.), and iQ SYBR Green Supermix (Biorad) according to the manufacturer's specifications.
Such increases in LC3 mRNA levels are associated in the literature with stimulation of macroautophagy. This supports the hypothesis that at doses as low as 1 nM in this in vitro system there is stimulation of autophagy in these cells.
(§3) Autophagy was measured in a neuroblastoma cell culture system by three distinct approaches: quantitation of autophagy-related mRNA's, immunofluorescence microscopy of autophagosomes, and biochemical detection of the microtubule-associated protein 1 light chain 3 (LC3) a key protein that is required for autophagosome formation. Differentiated human neuroblastoma cells (SH-SY5Y) were treated for 72 hr with LNK-754-TS (0.01-100 nM), Zarnestra® (also referred to herein as tipifarnib) (100 nM) or rapamycin (1 μM).

[2] = test system: LC3-positive puncta (autophagosomes); assay: LC3 immunostaining (LC3-positive puncta) in SH-SY5Y cells; type: cell-based, human; conditions: 100 nM, SH-SY5Y (FIG. 8b)
Description: as §1, §3

[3] = test system: autophagy-related gene transcripts; assay: mRNA of autophagy-related genes (Atg1, p62) in SH-SY5Y cells; type: cell-based, human; conditions: 100 nM, SH-SY5Y (FIG. 8d)
Description: as §2
Rapamycin is a well-characterized autophagy stimulator that acts through inhibition of mTOR, a kinase involved in nutrient signaling and regulation of cell growth and survival.

GGTase [4] = molecular target: T1, GGTase (Homo sapiens, UniProt P49354+P53609); assay: GGTase inhibitory activity, general statement; type: biochemical; conditions: selective FTase inhibitors
FTase = FTase (Homo sapiens, UniProt P49354+P49356); conditions: End et al., Cancer Research 2001; cited from earlier work
GGTase [5] = molecular target: T1, GGTase; conditions: at 50 micromolar; cited from earlier work

SMILES: CO/C1=C\C(C)=C\[C@@H](C)[C@@H](O)[C@@H](C)C/C(C)=C/C=C/[C@H](OC)[C@@H]([C@@H](C)[C@@H](O)[C@H](C)[C@@]2(O)C[C@@H](O)[C@H](C)[C@@H](C(C)C)O2)OC1=O [Bafilomycin, bafilomycin A1, reference compound]
- increase in the amount of LC3-II (LC3-II protein): 100%

- AUC(0-t) ([1]; Brain): 44.50 ng·h/g
- AUC(0-[…]) ([1]; Brain): 86.86 ng·h/g
- Cmax ([1]; mouse, Brain): 6.84 ng/g
- Tmax ([1]; mouse, Brain): 1 h
- half-life ([1]; mouse, Brain): 8.1 h
- MRT ([1]; mouse, Brain): 11.4 h
- Cmax ([1]; mouse, plasma, Blood): 40.4 ng/mL
- Tmax ([1]; mouse, plasma, Blood): 1 h
- half-life ([1]; mouse, plasma, Blood): 1.31 h
- AUC(0-t) ([1]; mouse, plasma, Blood, read-out: AUC(0-t)): 130 ng·h/mL
- AUC ([1]; mouse, plasma, Blood, read-out: AUC(0-[…])): 131 ng·h/mL
- MRT ([1]; mouse, plasma, Blood): 1.76 h
- GGTase inhibitory activity (GGTase [4]): little to no GGTase inhibitory activity
SMILES: Cn1cncc1[C@@](N)(c1ccc(Cl)cc1)c1ccc2c(c1)c(-c1cccc(Cl)c1)cc(=O)n2C [Zarnestra®, (R)-6-(Amino(4-chlorophenyl)(1-methyl-1H-imidazol-5-yl)methyl)-4-(3-chlorophenyl)-1-methyl-2(1H)-quinolinone]
- levels of α-synuclein in the hippocampus (human α-synuclein): decrease levels of α-synuclein
- α-synuclein inclusions (human α-synuclein): fewer α-synuclein inclusions
- LC3 mRNA (LC3 mRNA): works in this assay; also recorded: upregulated
- LC3 mRNA (LC3 mRNA; listed as tipifarnib): increased
- number of LC3-positive puncta [2]: distinct increase
- number of LC3-positive puncta ([2]; listed as tipifarnib): increased
- mRNA levels of a set of autophagy-related genes (incl. Atg1) [3]: unaffected
- selectivity for FTase than GGTase (FTase): over 5,000 times
- inhibition of geranylgeranylation of lamin B peptide substrate by GGTase (GGTase [5]): 40%

From US20100331363A1, “TREATMENT OF MITOCHONDRIAL DISORDERS USING A FARNESYL TRANSFERASE INHIBITOR” (Link Medicine Corporation, priority 2008, published 2010)
